Laboratory results reported in patent publication US20070066681A1, “Pharmaceutical composition for treating fatty liver or hepatic disease” (CHUGAI SEIYAKU KAUSHIKI KAISHA, priority 2003, published 2007).

Legend:
Format in all cases: in vivo
[1] = tested on: excess apoAI expressing mice fed with high fat diet; assay: Action of BO-653 on excess apoAI expressing mice fed with high fat diet (fatty liver and associated hepatic disease); conditions: for AST (serum) / Liver weight / Total cholesterol (serum): 0.6% BO-653 or 0.5% probucol in high fat diet, 37 weeks of feeding, mean ± standard error; for blood AST compared with high fat diet group (in words) / liver weight compared with high fat diet group (in words): drug-containing high fat diet vs high fat diet only, 37 weeks
From the text: The therapeutic activity of BO-653 against fatty liver and associated hepatic disease was investigated using excess apoAI expressing mice which were fed with a high fat diet to induce fatty liver and further develop hepatic diseases.
ApoAI, i.e., apolipoprotein AI, is an apolipoprotein constituting high density lipoproteins mainly responsible for blood lipid metabolism in rodents including mice. In mice expressing excess apoAI, blood cholesterol levels are originally high. Thus, even if they are fed with a high fat diet for causing the onset of fatty liver, increases in blood cholesterol are relatively small. Such mice are advantageous in that the influence of changes in blood cholesterol on the results of the test need not be considered in evaluating the therapeutic activity of BO-653 against fatty liver and associated hepatic disease.
(§1) Mice expressing excess apoAI (female, 10 to 11 weeks of age, purchased from Jackson Laboratories) were divided into 4 groups of N-animals. The animals of the respective groups were fed with a normal diet, a high fat diet, a 0.6% BO-653-containing high fat diet (hereinafter referred to as B+ high fat diet), and a 0.5% probucol-containing high fat diet (hereinafter referred to as P+ high fat diet).
(§2) The B+high fat diet and the P+ high fat diet were prepared by removing cellulose in amounts corresponding to 0.60% and 0.50%, respectively, from the high fat diet of the above composition, and adding the corresponding amounts of BO-653 and probucol, respectively, to the remaining composition. Probucol is a liposoluble antioxidant.
(§3) Serum was separated from the collected blood, and AST and total cholesterol in the serum were measured with an autoanalyzer (COBS FARAII ROCHE). The entire body of the animal subjected to the laparotomy and blood collection was perfused with physiological saline, and the weight of the liver was measured.

apoE deficiency mice = assay: Effect of BO-653 in apoE deficiency mice
Procedure: Besides, the effect of BO-653 was tested using apoE deficiency mice. These mice are known as mice showing high blood total cholesterol levels even on a normal diet and, at the same time, show high blood AST even on a normal diet.

[2] = tested on: C57BL/6J mice fed with high fat diet; assay: Same high fat diet test in C57BL/6J mice expressing apolipoprotein AI normally; conditions: B+ high fat diet (0.6% BO-653), only high fat diet: 275±31
Procedure: as §1, §2, §3
(§4) The same tests were conducted using C57BL/6J mice (female, 6 weeks of age, purchased from CLEA Japan) expressing apolipoprotein AI normally, and apoAI deficiency mice (female, 10 to 11 weeks of age, purchased from Jackson Laboratories) expressing no apolipoprotein AI in contrast to the animals in the present Test Example.

[3] = tested on: apoAI deficiency mice fed with high fat diet; assay: Same high fat diet test in apoAI deficiency mice; conditions: B+ high fat diet (0.6% BO-653), only high fat diet: 159±10
Procedure: as §1, §2, §3, §4

## CC(C)(Sc1cc(C(C)(C)C)c(O)c(C(C)(C)C)c1)Sc1cc(C(C)(C)C)c(O)c(C(C)(C)C)c1 [probucol, reference compound]
[1]
  AST (serum): 218 ± 18 U/L
  Liver weight: 2923 ± 185 mg
  Total cholesterol (serum): 203 ± 10 mg/dL
  blood AST compared with high fat diet group (in words): not as great as those in the B+ high fat diet group
  liver weight compared with high fat diet group (in words): not as great as those in the B+ high fat diet group

## CCCCCC1(CCCCC)Cc2c(cc(C(C)(C)C)c(O)c2C(C)(C)C)O1 [BO-653, 4,6-di-t-butyl-5-hydroxy-2,2-di-n-pentyl-2,3-dihydrobenzofuran]
apoE deficiency mice
  blood AST: lowered
  blood total cholesterol values: without involving changes
[2]
  serum AST: 181±18
[1]
  AST (serum): 96 ± 7 U/L
  Liver weight: 2789 ± 106 mg
  Total cholesterol (serum): 353 ± 32 mg/dL
  blood AST compared with high fat diet group (in words): greatly lower
  liver weight compared with high fat diet group (in words): significantly less
[1]; decline in blood AST, B+ vs P+ high fat diet
  suppression of AST leakage from liver cells, action relative to probucol: several times as high as that of probucol
[3]
  blood ASL: 85±8
